Where two headings read alike, the source gives them in different places.
Test system: nerve-derived transglutaminase (TGN) purified from regenerating fish optic nerve, Carp (Cyprinus carpio), 55 kDa
Procedure: The incorporation of radioactive putrescine to a carrier protein is an assay characteristic of enzymes of the transglutaminase family. Any carrier protein that has lysine residues may be used in the assay, such as casein, bovine serum albumin, etc.
In this example, activity characteristic of the nerve-derived transglutaminase was measured by incorporation of [^14C)putrescine into N,N-dimethylcasein (Chakrabarty et al., 1987). The purified TGN enzyme eluted from the TG-Ab affinity column with glycine in Example 3 was dialyzed for 2 hours in the presence of N,N-dimethylcasein (1 mg/ml), before being added to the reaction mixture. The reaction was initiated by addition of […] TGN ([…]), followed by incubation for 20 min at 37°C and terminated by the addition of ice-cold trichloroacetic acid (TCA; final concentration, 5%).
The enzyme activity was titrated with respect to temperature and pH and substrate concentration. […] Titration was carried out by measuring incorporation of [^14C]putrescine to caseine in the presence of TGN.

**Q.** Which Km (incorporation of [^14C]putrescine to caseine in the presence of TGN, calculated from titration of activity as a function of substrate concentration, 20 min at 37°C) does the source give for `NCCCCN` [putrescine] here?
**A.** The Km was 0.55 µM.

**Q.** What about the Km (read-out: Km in the incorporation of putrescine, calculated as a function of substrate, list of TGN characteristics, unit inferred) of the same molecule?
**A.** The Km was 0.55 µM.

Reference: patent EP0610475B1, “NERVE-DERIVED TRANSG[…] USEFUL FOR INDUCING NERVE REGENERATION” (YEDA RESEARCH AND DEVELOPMENT COMPANY, LTD., priority 1992, dated 1994)
